The target of the first assay is T1, rat CB-1 receptor (Rattus norvegicus, UniProt P20272).
T1 construct: The tissue obtained from the brain of SD rats was homogenized; from tissue; host or cells: brain of SD rats (membrane pellet of homogenate)
T1 sequence (P20272 whole entry): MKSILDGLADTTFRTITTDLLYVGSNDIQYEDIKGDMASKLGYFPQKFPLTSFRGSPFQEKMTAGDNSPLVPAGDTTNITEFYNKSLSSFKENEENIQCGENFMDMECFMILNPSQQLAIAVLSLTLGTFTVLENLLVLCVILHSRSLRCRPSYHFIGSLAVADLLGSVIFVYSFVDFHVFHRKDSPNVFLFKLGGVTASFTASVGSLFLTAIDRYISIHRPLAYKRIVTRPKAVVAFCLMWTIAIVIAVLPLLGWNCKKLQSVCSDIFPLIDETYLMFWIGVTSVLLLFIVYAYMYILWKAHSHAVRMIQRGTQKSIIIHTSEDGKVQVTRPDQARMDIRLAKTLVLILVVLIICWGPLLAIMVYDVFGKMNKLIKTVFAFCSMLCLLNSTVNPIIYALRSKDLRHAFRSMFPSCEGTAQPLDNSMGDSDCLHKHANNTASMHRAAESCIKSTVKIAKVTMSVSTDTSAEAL
Nature of the assay: rat CB-1 receptor binding protocol with [3H]CP-55940.
Conditions: not given
By IC50 is commonly meant the point on the concentration scale where inhibition reaches its midpoint. Consider `Cc1c(-c2nnc(C(C)C)o2)nc(-c2ccc(Cl)cc2Cl)n1-c1ccc(Cl)cc1` [Example 9, 2-(1-(4-Chlorophenyl)-2-(2,4-dichlorophenyl)-5-methyl-1H-imidazol-4-yl)-5-isopropyl-1,3,4-oxadiazole], for which the half-inhibitory concentration (IC50) is 25.8 nM.

`Cc1c(-c2nnc(C3(C(F)(F)F)CCC3)o2)nc(-c2ccccc2Cl)n1-c1ccc(Br)cc1` [Example 53, 2-(1-(4-Bromophenyl)-2-(2-chlorophenyl)-5-methyl-1H-imidazol-4-yl)-5-(1-(trifluoromethyl)cyclobutyl)-1,3,4-oxadiazole] registered a half-maximal inhibitory concentration (IC50) of 11.4 nM.

The same assay, now with this note: [3H]CP-55940, brain tissue of SD rats, 30 °C for 60 min; read-out: IC50.
Take `Cc1c(-c2nnc(C3CCCC3)s2)nc(-c2ccc(Cl)cc2Cl)n1-c1ccc(Cl)cc1` [Example 92, 2-(1-(4-Chlorophenyl)-2-(2,4-dichlorophenyl)-5-methyl-1H-imidazol-4-yl)-5-cyclopentyl-1,3,4-thiadiazole]: the IC50 was 10.8 nM. `CCCc1c(-c2nnc(C3(c4ccccc4)CC3)s2)nc(-c2ccc(Cl)cc2Cl)n1-c1ccc(Br)cc1` [Example 121, 2-(1-(4-Bromophenyl)-2-(2,4-dichlorophenyl)-5-propyl-1H-imidazol-4-yl)-5-(1-phenylcyclopropyl)-1,3,4-thiadiazole]: the IC50 was 13.2 nM. As to `Cc1c(-c2nnc(C3CCCCCC3)s2)nc(-c2ccc(Cl)cc2Cl)n1-c1ccc(Cl)cc1` [Example 94, 2-(1-(4-Chlorophenyl)-2-(2,4-dichlorophenyl)-5-methyl-1H-imidazol-4-yl)-5-cycloheptyl-1,3,4-thiadiazole], the concentration for half-maximal inhibition (IC50) was determined as 21.6 nM. Consider `CCc1c(-c2nnc(C3(c4ccc(Cl)cc4Cl)CC3)s2)nc(-c2ccc(Cl)cc2Cl)n1-c1ccc(Br)cc1` [Example 134, 2-(1-(4-Bromophenyl)-2-(2,4-dichlorophenyl)-5-ethyl-1H-imidazol-4-yl)-5-(1-(2,4-dichlorophenyl)cyclopropyl)-1,3,4-thiadiazole], for which the concentration for half-maximal inhibition (IC50) turned out to be 6.57 nM. Consider `CCc1c(-c2nnc(C3CCCC3)s2)nc(-c2ccc(Cl)cc2Cl)n1-c1ccc(Cl)cc1` [Example 102, 2-(1-(4-Chlorophenyl)-2-(2,4-dichlorophenyl)-5-ethyl-1H-imidazol-4-yl)-5-cyclopentyl-1,3,4-thiadiazole], for which the half-inhibitory concentration (IC50) is 17.6 nM. On to `Cc1c(-c2nnc(C(C)c3ccccc3)s2)nc(-c2ccc(Cl)cc2Cl)n1-c1ccc(Cl)cc1` (stereo not drawn) [Example 100, 2-(1-(4-Chlorophenyl)-2-(2,4-dichlorophenyl)-5-methyl-1H-imidazol-4-yl)-5-(1-phenylethyl)-1,3,4-thiadiazole], for which the 50% inhibitory concentration (IC50) amounted to 16.9 nM.

For `CCc1c(-c2nnc(C(C)(C)C)s2)nc(-c2ccc(Cl)cc2Cl)n1-c1ccc(Cl)cc1` [Example 104, 2-tert-Butyl-5-(1-(4-chlorophenyl)-2-(2,4-dichlorophenyl)-5-ethyl-1H-imidazol-4-yl)-1,3,4-thiadiazole], the IC50 was 15.8 nM.

Consider `CCc1c(-c2nnc(C3(c4ccc(OC)cc4)CC3)s2)nc(-c2ccc(Cl)cc2Cl)n1-c1ccc(Br)cc1` [Example 132, 2-(1-(4-Bromophenyl)-2-(2,4-dichlorophenyl)-5-ethyl-1H-imidazol-4-yl)-5-(1-(4-methoxyphenyl)cyclopropyl)-1,3,4-thiadiazole], for which the half-inhibitory concentration (IC50) was 9.21 nM. As for `CCCc1c(-c2nnc(C3(c4ccc(Cl)cc4)CC3)s2)nc(-c2ccc(Cl)cc2Cl)n1-c1ccc(Cl)cc1` [Example 127, 2-(1-(4-Chlorophenyl)-2-(2,4-dichlorophenyl)-5-propyl-1H-imidazol-4-yl)-5-(1-(4-chlorophenyl)cyclopropyl)-1,3,4-thiadiazole], the IC50 was found to be 3.43 nM. For `CCCc1c(-c2nnc(C3(c4ccc(Cl)cc4)CCC3)s2)nc(-c2ccc(Cl)cc2Cl)n1-c1ccc(Cl)cc1` [Example 128, 2-(1-(4-Chlorophenyl)-2-(2,4-dichlorophenyl)-5-propyl-1H-imidazol-4-yl)-5-(1-(4-chlorophenyl)cyclobutyl)-1,3,4-thiadiazole], the IC50 turned out to be 3.5 nM.

(Values after patent US20080207705A1, “Heteroaryl-Imidazole Derivatives as Cannabinoid CB1 Receptor Antagonists” (Green Cross Corporation, priority 2007, published 2008).)
